# Data as given in patent US12351570B2 (MERCK PATENT GMBH, priority 2018, dated 2025).
# Test system: MDA-MB-231 cells
# Test: Extracellular lactate production inhibition after 4 h, MDA-MB-231
# Conditions: Homo sapiens, MDA-MB-231
# Experimental: Extracellular Lactate Production Inhibition after 4 h
# Cells were plated in growth media supplemented with 10% FBS, followed by overnight recovery at 37° C., 5% CO2. […] Plates were then moved for 4 h incubation at 37° C., 5% CO2 with subsequent 20 μl media transfer to empty 384-well transparent plates. […] Plates were short-spun and measured kinetically in absorbance mode (530 nm, 12 min measurement time with 2-minute intervals between subsequent readouts at 30° C.). Differences in the signal between T8 min and T0min were normalized to vehicle (cells w/ 0.25% DMSO) and quasi-positive (LCIS buffer w/ 0.25% DMSO) controls and plotted against logarithmically-transformed test compound concentrations with fitting the 4-parameter model in GraphPad Prism software.
row,SMILES,IC50 [nM]
1,"O=C(O)c1ccc(C#Cc2ccccc2NS(=O)(=O)c2ccc3c(c2)CCO3)cc1 [Compound 3, 4-{2-[2-(2,3-dihydro-1-benzofuran-5-sulfonamido)phenyl]ethynyl}benzoic acid]",1000 to 100000
2,"O=C(O)c1ccc(C#Cc2ccccc2NS(=O)(=O)c2ccc3ccccc3c2)cc1O [Compound 5, 2-hydroxy-4-{2-[2-(naphthalene-2-sulfonamido)phenyl]ethynyl}benzoic acid]",1000 to 100000
3,"COc1cccc(S(=O)(=O)Nc2ccccc2C#Cc2ccc(C(=O)O)c(C)c2)c1 [Compound 9, 4-{2-[2-(3-methoxybenzenesulfonamido)phenyl]-ethynyl}-2-methylbenzoic acid]",1000 to 100000
4,"COc1cccc(S(=O)(=O)Nc2ccccc2C#Cc2ccc(C(=O)O)nc2)c1 [Compound 12, 5-{2-[2-(3-methoxybenzenesulfonamido)phenyl]-ethynyl}pyridine-2-carboxylic acid]",1000 to 100000
5,"O=C(NO)c1ccc(C#Cc2ccccc2NS(=O)(=O)c2ccc3ccccc3c2)cc1 [Compound 16, N-hydroxy-4-{2-[2-(naphthalene-2-sulfonamido)phenyl]ethynyl}benzamide]",1000 to 100000
6,"O=C(O)c1ccc(C#Cc2ccccc2C[S+]([O-])c2ccc3ccccc3c2)cc1 (stereo not drawn) [Compound 20, 4-(2-{2-[(naphthalene-2-sulfinyl)methyl]phenyl}ethynyl)benzoic acid]",1000 to 100000
7,"COc1ccc(S(=O)(=O)Nc2ccccc2C#Cc2ccc(C(=O)O)c(C#N)c2)c2ccccc12 [Compound 21, 2-cyano-4-{2-[2-(4-methoxynaphthalene-1-sulfonamido)phenyl]ethynyl}benzoic acid]",1000 to 100000
8,"COc1ccc(S(=O)(=O)Nc2ccccc2C#Cc2ccc(C(=O)O)cc2)c(Cl)c1Cl [Compound 23, 4-{2-[2-(2,3-dichloro-4-methoxybenzenesulfonamido)phenyl]-ethynyl}benzoic acid]",100 to 1000
9,"N#Cc1cc(C#Cc2ccccc2NS(=O)(=O)c2ccc3ccccc3c2)ccc1C(=O)O [Compound 24, 2-cyano-4-{2-[2-(naphthalene-2-sulfonamido)phenyl]ethynyl}benzoic acid]",1000 to 100000
10,"COc1ccc(S(=O)(=O)Nc2ccc(F)cc2C#Cc2ccc(C(=O)O)cc2)c2ccccc12 [Compound 25, 4-{2-[5-fluoro-2-(4-methoxynaphthalene-1-sulfonamido)phenyl]ethynyl}benzoic acid]",100 to 1000
11,"COc1ccc(S(=O)(=O)Nc2ccccc2C#Cc2cc(F)c(C(=O)O)c(F)c2)c2ccccc12 [Compound 27, 2,6-difluoro-4-{2-[2-(4-methoxynaphthalene-1-sulfonamido)phenyl]ethynyl}benzoic acid]",1000 to 100000
12,"O=C(O)c1ccc(C#Cc2ccccc2NS(=O)(=O)c2ccc3ccccc3c2)cc1Cl [Compound 28, 2-chloro-4-{2-[2-(naphthalene-2-sulfonamido)phenyl]ethynyl}benzoic acid]",100 to 1000
13,"O=C(O)c1c(F)cc(C#Cc2ccccc2NS(=O)(=O)c2ccc3ccccc3c2)cc1F [Compound 29, 2,6-difluoro-4-{2-[2-(naphthalene-2-sulfonamido)phenyl]ethynyl}benzoic acid]",1000 to 100000
14,"O=C(O)c1ccc(C#Cc2ccccc2NS(=O)(=O)c2ccc3ccccc3c2)c(F)c1 [Compound 30, 3-fluoro-4-{2-[2-(naphthalene-2-sulfonamido)phenyl]ethynyl}benzoic acid]",100 to 1000
15,"COc1ccc(S(=O)(=O)Nc2ccccc2C#Cc2ccc(C(=O)O)nc2)c2ccccc12 [Compound 31, 5-{2-[2-(4-methoxynaphthalene-1-sulfonamido)phenyl]ethynyl}pyridine-2-carboxylic acid]",100 to 1000
16,"O=C(O)c1ccc(C#Cc2cccc(F)c2NS(=O)(=O)c2ccc3ccccc3c2)cc1 [Compound 32, 4-{2-[3-fluoro-2-(naphthalene-2-sulfonamido)phenyl]ethynyl}benzoic acid]",100 to 1000
17,"COc1cc(C#Cc2ccccc2NS(=O)(=O)c2ccc(OC)c3ccccc23)ccc1C(=O)O [Compound 33, 2-methoxy-4-{2-[2-(4-methoxynaphthalene-1-sulfonamido)phenyl]ethynyl}benzoic acid]",100 to 1000
18,"O=C(O)c1ccc(C#Cc2ccccc2NS(=O)(=O)c2cnc(Cl)c(Br)c2)cc1 [Compound 34, 4-{2-[2-(5-bromo-6-chloropyridine-3-sulfonamido)phenyl]ethynyl}benzoic acid]",1000 to 100000

# Second part, the molecule after the results:
row,IC50 [nM],SMILES
1,100 to 1000,"CN(c1ccccc1C#Cc1ccc(C(=O)O)cc1)S(=O)(=O)c1ccc2ccccc2c1 [Compound 4, 4-{2-[2-(N-methylnaphthalene-2-sulfonamido)phenyl]ethynyl}benzoic acid]"
2,100 to 1000,"O=C(O)c1ccc(C#Cc2ccccc2CS(=O)(=O)c2ccc3ccccc3c2)cc1 [Compound 6, 4-(2-{2-[(naphthalene-2-sulfonyl)methyl]phenyl}ethynyl)benzoic acid]"
3,100 to 1000,"O=C(O)c1ccc(C#Cc2ccccc2NS(=O)(=O)c2ccc3c(c2)CCCC3)cc1 [Compound 7, 4-{2-[2-(5,6,7,8-tetrahydronaphthalene-2-sulfonamido)phenyl]ethynyl}benzoic acid]"
4,100 to 1000,"COc1ccc(S(=O)(=O)Nc2ccccc2C#Cc2ccc(C(=O)O)cc2)c2ccccc12 [Compound 8, 4-{2-[2-(4-methoxynaphthalene-1-sulfonamido)phenyl]ethynyl}benzoic acid]"
5,100 to 1000,"Cc1cc(C#Cc2ccccc2NS(=O)(=O)c2ccc3ccccc3c2)ccc1C(=O)O [Compound 10, 2-methyl-4-{2-[2-(naphthalene-2-sulfonamido)phenyl]ethynyl}benzoic acid]"
6,100 to 1000,"COc1ccc(S(=O)(=O)Nc2ccccc2C#Cc2ccc(C(=O)O)cc2)c2c1CCCC2 [Compound 11, 4-{2-[2-(4-methoxy-5,6,7,8-tetrahydronaphthalene-1-sulfonamido)phenyl]ethynyl}benzoic acid]"
7,100 to 1000,"O=C(O)c1ccc(C#Cc2ccccc2NS(=O)(=O)c2ccc3ccccc3c2)cc1F [Compound 14, 2-fluoro-4-{2-[2-(naphthalene-2-sulfonamido)phenyl]ethynyl}benzoic acid]"
8,100 to 1000,"O=C(O)c1ccc(C#Cc2cc(F)ccc2NS(=O)(=O)c2ccc3ccccc3c2)cc1 [Compound 15, 4-{2-[5-fluoro-2-(naphthalene-2-sulfonamido)phenyl]ethynyl}benzoic acid]"
9,100 to 1000,"O=C(O)c1ccc(C#Cc2ccc(C(F)(F)F)cc2NS(=O)(=O)c2ccc3ccccc3c2)cc1 [Compound 17, 4-{2-[2-(naphthalene-2-sulfonamido)-4-(trifluoromethyl)phenyl]ethynyl}benzoic acid]"
10,100 to 1000,"COc1ccc(S(=O)(=O)Nc2ccccc2C#Cc2ccc(C(=O)O)c(C)c2)c2ccccc12 [Compound 18, 4-{2-[2-(4-methoxynaphthalene-1-sulfonamido)phenyl]ethynyl}-2-methylbenzoic acid]"
11,100 to 1000,"COc1ccc(C#Cc2ccc(C(=O)O)cc2)c(NS(=O)(=O)c2ccc3ccccc3c2)c1 [Compound 19, 4-{2-[4-methoxy-2-(naphthalene-2-sulfonamido)phenyl]ethynyl}benzoic acid]"
12,100 to 1000,"Cc1c(S(=O)(=O)Nc2ccccc2C#Cc2ccc(C(=O)O)cc2)sc2ccc(Cl)cc12 [Compound 22, 4-{2-[2-(5-chloro-3-methyl-1-benzothiophene-2-sulfonamido)phenyl]ethynyl}benzoic acid]"
